Values quoted from earlier work as cited in patent US20210393559A1, “Compositions and Methods of Use of Beta-Hydroxy-Beta-methylbutyrate (HMB) for Improving Muscle Mass, Strength and Muscular Function Without Exercise” (Metabolic Technologies, LLC, priority 2020, published 2021).

Legend:
[1] = healthy young or old adults
[2] = after HMB is fed
[3] = molecular target: T1, 1-alpha, 25-Vitamin D hydroxylase (Homo sapiens, UniProt O15528); details: human vascular smooth muscle
T1 sequence (O15528 1-508): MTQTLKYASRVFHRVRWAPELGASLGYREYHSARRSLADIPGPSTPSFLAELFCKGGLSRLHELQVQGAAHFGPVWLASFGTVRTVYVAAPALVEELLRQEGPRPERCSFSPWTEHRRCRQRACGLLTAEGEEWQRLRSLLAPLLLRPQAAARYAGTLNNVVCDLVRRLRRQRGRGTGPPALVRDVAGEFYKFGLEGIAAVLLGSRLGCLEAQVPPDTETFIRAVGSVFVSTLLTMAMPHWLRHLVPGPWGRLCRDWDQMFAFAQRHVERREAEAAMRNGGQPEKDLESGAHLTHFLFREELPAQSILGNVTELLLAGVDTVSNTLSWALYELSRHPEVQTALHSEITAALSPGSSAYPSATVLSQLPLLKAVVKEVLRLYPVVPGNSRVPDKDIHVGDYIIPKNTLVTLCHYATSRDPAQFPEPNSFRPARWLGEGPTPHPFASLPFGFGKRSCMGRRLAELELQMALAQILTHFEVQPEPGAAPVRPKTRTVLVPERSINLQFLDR

Km [3] [ng/mL] | Compound | side effects [1] | loss of HMB to urine [2]
– | β-hydroxy-β-methylbutyrate [HMB] | no side effects | 20-50%
25 | C=C1CC[C@H](O)C/C1=C/C=C1\CCC[C@]2(C)[C@@H]([C@H](C)CCCC(C)(C)O)CC[C@@H]12 [25OH-VitD3] | – | –
